According to the supplement of paper PMC10307832:

Key:
Experiment in all cases: relative viability (nuclei count vs DMSO), 5 days (fraction); higher = more cells survive
[1] = tested on: A-427
Method in brief: (§1)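 Five library-drug doses in √10 steps were combined with a fixed anchor-drug dose, or a single drug was given alone, by pin tool to lung cancer cell lines in 1536-well plates the day after seeding. Nuclei were stained and counted after 5 days. Relative viability is the nuclei count in treated wells over that in vehicle wells, taken as the median of duplicate plates.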

[2] = tested on: COR-L 105
Method in brief: as §1

[3] = tested on: EPLC-272H
Method in brief: as §1

[4] = tested on: HCC-366
Method in brief: as §1

[5] = tested on: HCC-78
Method in brief: as §1

[6] = tested on: HOP-62
Method in brief: as §1

[7] = tested on: LC-2-ad
Method in brief: as §1

[8] = tested on: LU99A
Method in brief: as §1

[9] = tested on: LXF-289
Method in brief: as §1

[10] = tested on: NCI-H1666
Method in brief: as §1

[11] = tested on: NCI-H1792
Method in brief: as §1

[12] = tested on: NCI-H1793
Method in brief: as §1

[13] = tested on: NCI-H1915
Method in brief: as §1

[14] = tested on: NCI-H1944
Method in brief: as §1

[15] = tested on: NCI-H2009
Method in brief: as §1

[16] = tested on: NCI-H2085
Method in brief: as §1

[17] = tested on: NCI-H2170
Method in brief: as §1

[18] = tested on: NCI-H358
Method in brief: as §1

[19] = tested on: NCI-H460
Method in brief: as §1

[20] = tested on: SK-LU-1
Method in brief: as §1

[21] = tested on: SW 900
Method in brief: as §1

[22] = tested on: UMC-11
Method in brief: as §1

`COc1nc(C)cnc1NS(=O)(=O)c1cccnc1-c1ccc(-c2nnco2)cc1` [Zibotentan] + CC(=O)c1c(C)c2cnc(Nc3ccc(N4CCNCC4)cn3)nc2n(C2CCCC2)c1=O [Palbociclib] (partner 0.5 µM) gave a relative viability ([1]; first compound 0.08 µM) of 0.514, a relative viability ([1]; first compound 0.253 µM) of 0.515 and a relative viability ([1]; first compound 0.8 µM) of 0.519. For the same compound, the relative viability ([1]; first compound 2.53 µM) was 0.559, the relative viability ([2]; first compound 0.08 µM) was 0.381 and the relative viability ([2]; first compound 0.253 µM) was 0.375. The relative viability ([2]; first compound 0.8 µM) was 0.373, the relative viability ([2]; first compound 2.53 µM) was 0.45 and the relative viability ([3]; first compound 0.08 µM) was 0.348. For the same compound, the relative viability ([3]; first compound 0.253 µM) was 0.246, the relative viability ([3]; first compound 0.8 µM) was 0.366 and the relative viability ([3]; first compound 2.53 µM) was 0.33. It also gave a relative viability ([4]; first compound 0.08 µM) of 0.387, a relative viability ([4]; first compound 0.253 µM) of 0.285 and a relative viability ([4]; first compound 0.8 µM) of 0.383. It also gave a relative viability ([4]; first compound 2.53 µM) of 0.4, a relative viability ([5]; first compound 0.08 µM) of 0.464 and a relative viability ([5]; first compound 0.253 µM) of 0.488. It also gave a relative viability ([5]; first compound 0.8 µM) of 0.512, a relative viability ([5]; first compound 2.53 µM) of 0.512 and a relative viability ([6]; first compound 0.08 µM) of 0.47. For the same compound, the relative viability ([6]; first compound 0.253 µM) was 0.431, the relative viability ([6]; first compound 0.8 µM) was 0.518 and the relative viability ([6]; first compound 2.53 µM) was 0.451. For the same compound, the relative viability ([7]; first compound 0.08 µM) was 0.489, the relative viability ([7]; first compound 0.253 µM) was 0.459 and the relative viability ([7]; first compound 0.8 µM) was 0.44. The relative viability ([7]; first compound 2.53 µM) was 0.508, the relative viability ([8]; first compound 0.08 µM) was 0.394 and the relative viability ([8]; first compound 0.253 µM) was 0.442. For the same compound, the relative viability ([8]; first compound 0.8 µM) was 0.462, the relative viability ([8]; first compound 2.53 µM) was 0.402 and the relative viability ([9]; first compound 0.08 µM) was 0.577. The relative viability ([9]; first compound 0.253 µM) was 0.55, the relative viability ([9]; first compound 0.8 µM) was 0.592 and the relative viability ([9]; first compound 2.53 µM) was 0.61. It also gave a relative viability ([10]; first compound 0.08 µM) of 0.682, a relative viability ([10]; first compound 0.253 µM) of 0.594 and a relative viability ([10]; first compound 0.8 µM) of 0.694. The relative viability ([10]; first compound 2.53 µM) was 0.692, the relative viability ([11]; first compound 0.08 µM) was 0.77 and the relative viability ([11]; first compound 0.253 µM) was 0.551. The relative viability ([11]; first compound 0.8 µM) was 0.525, the relative viability ([11]; first compound 2.53 µM) was 0.578 and the relative viability ([12]; first compound 0.08 µM) was 0.362. For the same compound, the relative viability ([12]; first compound 0.253 µM) was 0.378, the relative viability ([12]; first compound 0.8 µM) was 0.287 and the relative viability ([12]; first compound 2.53 µM) was 0.296. The relative viability ([13]; first compound 0.08 µM) was 0.586, the relative viability ([13]; first compound 0.253 µM) was 0.499 and the relative viability ([13]; first compound 0.8 µM) was 0.546. The relative viability ([13]; first compound 2.53 µM) was 0.569, the relative viability ([14]; first compound 0.08 µM) was 0.366 and the relative viability ([14]; first compound 0.253 µM) was 0.301. It also gave a relative viability ([14]; first compound 0.8 µM) of 0.333, a relative viability ([14]; first compound 2.53 µM) of 0.39 and a relative viability ([15]; first compound 0.08 µM) of 0.188. The relative viability ([15]; first compound 0.253 µM) was 0.169, the relative viability ([15]; first compound 0.8 µM) was 0.205 and the relative viability ([15]; first compound 2.53 µM) was 0.212. The relative viability ([16]; first compound 0.08 µM) was 0.47, the relative viability ([16]; first compound 0.253 µM) was 0.466 and the relative viability ([16]; first compound 0.8 µM) was 0.496. For the same compound, the relative viability ([16]; first compound 2.53 µM) was 0.47, the relative viability ([17]; first compound 0.08 µM) was 0.389 and the relative viability ([17]; first compound 0.253 µM) was 0.369. For the same compound, the relative viability ([17]; first compound 0.8 µM) was 0.403, the relative viability ([17]; first compound 2.53 µM) was 0.371 and the relative viability ([18]; first compound 0.08 µM) was 0.152. For the same compound, the relative viability ([18]; first compound 0.253 µM) was 0.117, the relative viability ([18]; first compound 2.53 µM) was 0.125 and the relative viability ([19]; first compound 0.08 µM) was 0.157. It also gave a relative viability ([19]; first compound 0.253 µM) of 0.0391, a relative viability ([19]; first compound 0.8 µM) of 0.139 and a relative viability ([19]; first compound 2.53 µM) of 0.25. It also gave a relative viability ([20]; first compound 0.08 µM) of 0.416, a relative viability ([20]; first compound 0.253 µM) of 0.389 and a relative viability ([20]; first compound 0.8 µM) of 0.367. For the same compound, the relative viability ([20]; first compound 2.53 µM) was 0.367, the relative viability ([21]; first compound 0.08 µM) was 0.541 and the relative viability ([21]; first compound 0.253 µM) was 0.565. For the same compound, the relative viability ([21]; first compound 0.8 µM) was 0.487, the relative viability ([21]; first compound 2.53 µM) was 0.564 and the relative viability ([22]; first compound 0.08 µM) was 0.35. The relative viability ([22]; first compound 0.253 µM) was 0.323, the relative viability ([22]; first compound 0.8 µM) was 0.363 and the relative viability ([22]; first compound 2.53 µM) was 0.323.
